Results reported in PubChem BioAssay (NCI).
Values after ≈ are worked out from the molar mass of the structure shown.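 96-well plates; 48 h exposure; 5 concentrations. Endpoints by linear interpolation between flanking doses. Not reached: highest tested concentration assigned. The concentration for 50% growth inhibition is given as GI50. Definition used: TGI = concentration required for complete inhibition of growth.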 Non-standard residues stand in square brackets, D forms with d. Residues, ends and D or L forms follow the SMILES beside them. *: point of attachment. hSer = N[CH](CCO)C(=O)O; Boc = CC(C)(C)OC(=O)*

Columns and labels:
Assay in all cases: inhibition of tumour cell growth, NCI panel, 48 h
SW-620 colon = tested on: SW-620 colon
ACHN renal = tested on: ACHN renal
MALME-3M melanoma = tested on: MALME-3M melanoma
SF-539 CNS = tested on: SF-539 CNS
OVCAR-5 ovarian = tested on: OVCAR-5 ovarian
NCI/ADR-RES ovarian = tested on: NCI/ADR-RES ovarian
HL-60(TB) leukemia = tested on: HL-60(TB) leukemia
OVCAR-4 ovarian = tested on: OVCAR-4 ovarian
NCI-H226 lung = tested on: NCI-H226 lung
MDA-MB-231 breast = tested on: MDA-MB-231 breast
COLO 205 colon = tested on: COLO 205 colon
SK-OV-3 ovarian = tested on: SK-OV-3 ovarian
A498 renal = tested on: A498 renal
SK-MEL-28 melanoma = tested on: SK-MEL-28 melanoma
DU-145 prostate = tested on: DU-145 prostate
HS 578T breast = tested on: HS 578T breast
UACC-62 melanoma = tested on: UACC-62 melanoma
LOX IMVI melanoma = tested on: LOX IMVI melanoma
NCI-H460 lung = tested on: NCI-H460 lung
K-562 leukemia = tested on: K-562 leukemia
HCT-15 colon = tested on: HCT-15 colon
M14 melanoma = tested on: M14 melanoma
SR leukemia = tested on: SR leukemia
HCC-2998 colon = tested on: HCC-2998 colon
HCT-116 colon = tested on: HCT-116 colon
MOLT-4 leukemia = tested on: MOLT-4 leukemia
OVCAR-3 ovarian = tested on: OVCAR-3 ovarian
OVCAR-8 ovarian = tested on: OVCAR-8 ovarian
NCI-H522 lung = tested on: NCI-H522 lung
MCF7 breast = tested on: MCF7 breast
CCRF-CEM leukemia = tested on: CCRF-CEM leukemia
KM12 colon = tested on: KM12 colon
HOP-62 NSCLC = tested on: HOP-62 NSCLC
HOP-92 NSCLC = tested on: HOP-92 NSCLC
SNB-75 CNS = tested on: SNB-75 CNS
SNB-19 CNS = tested on: SNB-19 CNS
RXF 393 renal = tested on: RXF 393 renal
CAKI-1 renal = tested on: CAKI-1 renal
SF-268 CNS = tested on: SF-268 CNS
IGROV1 ovarian = tested on: IGROV1 ovarian
SK-MEL-2 melanoma = tested on: SK-MEL-2 melanoma
U251 CNS = tested on: U251 CNS
T-47D breast = tested on: T-47D breast
786-0 renal = tested on: 786-0 renal
SK-MEL-5 melanoma = tested on: SK-MEL-5 melanoma
MDA-MB-435 = tested on: MDA-MB-435
A549 NSCLC = tested on: A549 NSCLC
NCI-H23 lung = tested on: NCI-H23 lung
RPMI-8226 leukemia = tested on: RPMI-8226 leukemia
BT-549 breast = tested on: BT-549 breast
UACC-257 melanoma = tested on: UACC-257 melanoma
PC-3 prostate = tested on: PC-3 prostate
TK-10 renal = tested on: TK-10 renal
EKVX NSCLC = tested on: EKVX NSCLC
SN12C renal = tested on: SN12C renal
SF-295 CNS = tested on: SF-295 CNS
HT29 colon = tested on: HT29 colon
UO-31 renal = tested on: UO-31 renal

SMILES: O=C(Nc1ccc2ncnc(Nc3ccc(Oc4cccc(F)c4)c(Cl)c3)c2c1)c1ccc(CNCCO)cc1
- GI50 (SW-620 colon): 1.83 µM
- TGI (SW-620 colon): 3.52 µM
- GI50 (ACHN renal): 1.59 µM
- TGI (ACHN renal): 3.05 µM
- GI50 (MALME-3M melanoma): 1.52 µM
- TGI (MALME-3M melanoma): 2.93 µM
- GI50 (SF-539 CNS): 1.62 µM
- TGI (SF-539 CNS): 3.01 µM
- GI50 (OVCAR-5 ovarian): 1.63 µM
- TGI (OVCAR-5 ovarian): 3.17 µM
- GI50 (NCI/ADR-RES ovarian): 7.2 µM
- TGI (NCI/ADR-RES ovarian): 36.9 µM
- GI50 (HL-60(TB) leukemia): 2.06 µM
- TGI (HL-60(TB) leukemia): 4.74 µM
- GI50 (OVCAR-4 ovarian): 1.88 µM
- TGI (OVCAR-4 ovarian): 4.81 µM
- GI50 (NCI-H226 lung): 19.7 µM
- TGI (NCI-H226 lung): 56.1 µM
- GI50 (MDA-MB-231 breast): 1.73 µM
- TGI (MDA-MB-231 breast): 3.27 µM
- GI50 (COLO 205 colon): 1.8 µM
- TGI (COLO 205 colon): 3.56 µM
- GI50 (SK-OV-3 ovarian): 1.14 µM
- TGI (SK-OV-3 ovarian): 2.53 µM
- GI50 (A498 renal): 2.58 µM
- TGI (A498 renal): 23.4 µM
- GI50 (SK-MEL-28 melanoma): 1.69 µM
- TGI (SK-MEL-28 melanoma): 3.08 µM
- GI50 (DU-145 prostate): 1.8 µM
- TGI (DU-145 prostate): 3.44 µM
- GI50 (HS 578T breast): 1.64 µM
- TGI (HS 578T breast): 4.42 µM
- GI50 (UACC-62 melanoma): 1.7 µM
- TGI (UACC-62 melanoma): 3.07 µM

SMILES: COCCC(NC(=O)C(CC(C)C)NC(=O)OC(C)(C)C)C(=O)OC (stereo not drawn) (Boc-Leu-[hSer](Me)-OMe; configuration not given here)
- GI50 (LOX IMVI melanoma): 65.1 µg/mL (≈ 181 µM)
- GI50 (NCI-H460 lung): 70.1 µg/mL (≈ 194 µM)
- GI50 (K-562 leukemia): 63.1 µg/mL (≈ 175 µM)
- GI50 (HCT-15 colon): 64.9 µg/mL (≈ 180 µM)
- GI50 (M14 melanoma): 48.6 µg/mL (≈ 135 µM)
- GI50 (SR leukemia): 31.2 µg/mL (≈ 86.7 µM)
- GI50 (HCC-2998 colon): 50.1 µg/mL (≈ 139 µM)
- GI50 (HL-60(TB) leukemia): 37 µg/mL
- GI50 (HCT-116 colon): 91.6 µg/mL (≈ 254 µM)
- GI50 (OVCAR-4 ovarian): 70.2 µg/mL
- GI50 (MOLT-4 leukemia): 26 µg/mL (≈ 72.1 µM)
- TGI (MOLT-4 leukemia): 70.2 µg/mL
- GI50 (OVCAR-3 ovarian): 78.4 µg/mL (≈ 217 µM)
- GI50 (OVCAR-8 ovarian): 88.3 µg/mL (≈ 245 µM)
- GI50 (NCI-H522 lung): 31.3 µg/mL
- TGI (NCI-H522 lung): 80.1 µg/mL
- GI50 (MCF7 breast): 59.7 µg/mL (≈ 166 µM)
- GI50 (CCRF-CEM leukemia): 17.8 µg/mL (≈ 49.4 µM)
- GI50 (KM12 colon): 89.9 µg/mL (≈ 250 µM)

SMILES: Nc1nc(Cl)c(N=Nc2ccc(Cl)cc2)c(NCC2(CO)CC2)n1
- GI50 (ACHN renal): 0.411 µM
- GI50 (HOP-62 NSCLC): 28.7 µM
- GI50 (HOP-92 NSCLC): 1.08 µM
- TGI (HOP-92 NSCLC): 38.1 µM
- GI50 (SNB-75 CNS): 10.3 µM
- GI50 (SNB-19 CNS): 50 µM
- GI50 (RXF 393 renal): 33.5 µM
- GI50 (MDA-MB-231 breast): 11.1 µM
- GI50 (CAKI-1 renal): 5.06 µM
- GI50 (SK-OV-3 ovarian): 14.2 µM
- GI50 (NCI-H522 lung): 47.5 µM
- GI50 (A498 renal): 90.9 µM
- GI50 (SF-268 CNS): 40.9 µM
- GI50 (HS 578T breast): 12.6 µM

SMILES: O=CC(O)C(O)C(O)C(O)COP(=O)(O)Cc1ccccc1 (stereo not drawn)
- TGI (IGROV1 ovarian): > 10 µM
- TGI (SW-620 colon): > 10 µM
- TGI (NCI-H460 lung): > 10 µM
- TGI (K-562 leukemia): > 10 µM
- TGI (ACHN renal): > 10 µM
- TGI (MALME-3M melanoma): > 10 µM
- TGI (M14 melanoma): > 10 µM
- TGI (SK-MEL-2 melanoma): > 10 µM
- TGI (U251 CNS): > 10 µM
- TGI (HOP-62 NSCLC): > 10 µM
- TGI (OVCAR-5 ovarian): > 10 µM
- TGI (SR leukemia): > 10 µM
- TGI (SNB-75 CNS): > 10 µM
- TGI (NCI/ADR-RES ovarian): > 10 µM
- TGI (T-47D breast): > 10 µM
- TGI (HL-60(TB) leukemia): > 10 µM
- TGI (786-0 renal): > 10 µM
- TGI (SK-MEL-5 melanoma): > 10 µM
- TGI (OVCAR-4 ovarian): > 10 µM
- TGI (RXF 393 renal): > 10 µM
- TGI (MDA-MB-435): > 10 µM
- TGI (COLO 205 colon): > 10 µM
- TGI (CAKI-1 renal): > 10 µM
- TGI (A549 NSCLC): > 10 µM
- TGI (NCI-H23 lung): > 10 µM
- TGI (SK-OV-3 ovarian): > 10 µM
- TGI (MOLT-4 leukemia): > 10 µM
- TGI (MCF7 breast): > 10 µM
- TGI (CCRF-CEM leukemia): > 10 µM
- TGI (SK-MEL-28 melanoma): > 10 µM
- TGI (SF-268 CNS): > 10 µM
- TGI (UACC-62 melanoma): > 10 µM
- TGI (RPMI-8226 leukemia): > 10 µM

SMILES: Nc1nc(-c2ccccc2)nc2c1[n+]([O-])c1ccccc1[n+]2[O-]
- TGI (IGROV1 ovarian): > 100 µM
- TGI (LOX IMVI melanoma): > 100 µM
- TGI (SW-620 colon): > 100 µM
- TGI (NCI-H460 lung): > 100 µM
- TGI (K-562 leukemia): > 100 µM
- TGI (HCT-15 colon): > 100 µM
- TGI (ACHN renal): > 100 µM
- TGI (MALME-3M melanoma): > 100 µM
- TGI (M14 melanoma): > 100 µM
- TGI (SK-MEL-2 melanoma): > 100 µM
- TGI (SF-539 CNS): > 100 µM
- TGI (U251 CNS): > 100 µM
- TGI (HOP-62 NSCLC): > 100 µM
- TGI (BT-549 breast): > 100 µM
- TGI (OVCAR-5 ovarian): > 100 µM
- TGI (HCC-2998 colon): > 100 µM
- TGI (NCI/ADR-RES ovarian): > 100 µM
- TGI (T-47D breast): > 100 µM
- TGI (HL-60(TB) leukemia): > 100 µM
- TGI (786-0 renal): > 100 µM
- TGI (SNB-19 CNS): > 100 µM
- TGI (SK-MEL-5 melanoma): > 100 µM
- TGI (UACC-257 melanoma): > 100 µM
- TGI (HCT-116 colon): > 100 µM
- TGI (RXF 393 renal): > 100 µM
- TGI (PC-3 prostate): > 100 µM
- TGI (TK-10 renal): > 100 µM
- TGI (EKVX NSCLC): > 100 µM
- TGI (NCI-H226 lung): > 100 µM
- TGI (MDA-MB-231 breast): > 100 µM
- TGI (MDA-MB-435): > 100 µM
- TGI (COLO 205 colon): > 100 µM
- TGI (CAKI-1 renal): > 100 µM
- TGI (A549 NSCLC): > 100 µM
- TGI (NCI-H23 lung): > 100 µM
- TGI (SK-OV-3 ovarian): > 100 µM
- TGI (OVCAR-3 ovarian): > 100 µM
- TGI (OVCAR-8 ovarian): > 100 µM
- TGI (SN12C renal): > 100 µM
- TGI (NCI-H522 lung): > 100 µM
- TGI (MCF7 breast): > 100 µM
- TGI (CCRF-CEM leukemia): > 100 µM
- TGI (A498 renal): > 100 µM
- TGI (SF-295 CNS): > 100 µM
- TGI (SK-MEL-28 melanoma): > 100 µM
- TGI (DU-145 prostate): > 100 µM
- TGI (SF-268 CNS): > 100 µM
- TGI (HS 578T breast): > 100 µM
- TGI (KM12 colon): > 100 µM
- TGI (UACC-62 melanoma): > 100 µM
- TGI (HT29 colon): > 100 µM
- TGI (UO-31 renal): > 100 µM
- TGI (RPMI-8226 leukemia): > 100 µM
